Data taken from patent publication US20180340012A1, “METHODS AND CO[…] TO IMPROVING PROPERTIES OF PHARMACOLOGICAL AGENTS TARGETING NERVOUS SYSTEM” (University of Utah Research Foundation, priority 2006, published 2018).
“Also recorded” adds a separate entry of the source. Like-named read-outs stand apart in the source and are kept apart here. Square brackets hold non-standard residues; d marks the D form. Ends that are not written are not given here. Peptide text beside a SMILES is read from it. * marks the point of attachment. Fmoc = O=C(OCC1c2ccccc2-c2ccccc21)*; Palmitoyl = CCCCCCCCCCCCCCCC(=O)*; Cha = N[C@@H](CC1CCCCC1)C(=O)O; AMC = Cc1cc(=O)oc2cc(N*)ccc12; Ahx = NCCCCCC(=O)O; Sar = CNCC(=O)O

Assays:
[1] = Toxicity (motor impairment) noted in the SAR screen; type: in vivo, mice; conditions: 4 mg/kg, i.p.
Text: Minimal toxicity will be identified in mice by the rotarod procedure (Dunham and Miya, 1957). When a mouse is placed on a 1-inch knurled rod that rotates at a speed of 6 r.p.m., the animal can maintain its equilibrium for long periods of time. The animal is considered toxic if it falls off this rotating rod three times during a 1-minute period.
SAR studies have been carried out in an effort to better understand structural determinants of its activity following systemic administration. […] Presence of the Lys-palm residue was insufficient to produce any observable anticonvulsant activity.

6 Hz limbic seizures = assay: 6 Hz limbic (psychomotor) seizure test; type: in vivo, CF-1 mice; conditions: for % Protection at 1 hour / % Protection at 2 hours / % Protection at 4 hours / % Protection at 1, 2 and 4 hours (result in words): 4 mg/kg; for % Protection at 1 hour / % Protection at 2 hours / % Protection at 4 hours / ED50 in the 6 Hz model / dose in parentheses in Table 14 (ED50) / % Protection at 1, 2 and 4 hours (result in words): i.p.; for % Protection at 1 hour: model not printed at tables, ED50s of same analogs called 6 Hz model; for dose in parentheses in Table 14 (ED50): not labelled in table
Text: Mice not displaying limbic seizures were considered protected.

[2] = tested on: seizures (6 Hz limbic seizure model); conditions: 4 mg/kg, i.p.
galanin receptors = conditions: truncation of GAL(1-16) fragment; read-out: KD towards galanin receptors; cited from earlier work
hGalR2 = biological target: T1, hGalR2 (Homo sapiens, UniProt O43603); conditions: cited from earlier work
T1 sequence (O43603 1-387): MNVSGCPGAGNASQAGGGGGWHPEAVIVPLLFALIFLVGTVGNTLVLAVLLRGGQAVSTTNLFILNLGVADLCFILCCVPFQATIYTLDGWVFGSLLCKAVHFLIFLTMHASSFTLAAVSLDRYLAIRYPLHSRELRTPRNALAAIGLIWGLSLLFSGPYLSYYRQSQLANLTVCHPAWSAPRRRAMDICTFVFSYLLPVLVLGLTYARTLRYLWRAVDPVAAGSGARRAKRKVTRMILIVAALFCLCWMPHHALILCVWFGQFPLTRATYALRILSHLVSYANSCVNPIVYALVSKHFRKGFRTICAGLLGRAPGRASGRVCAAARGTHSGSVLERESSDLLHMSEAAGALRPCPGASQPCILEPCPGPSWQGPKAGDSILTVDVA

[3] = tested on: formalin-induced paw licking; assay: Mouse formalin test; type: in vivo; conditions: for Active at (flat phase II): mouse formalin assay of inflammatory pain
Experimental: An injection of 0.5% formalin is made into the planter region of a mouse right hind paw. This elicits a distinct biphasic behavioral profile characterized by the mouse licking the affected paw. Immediately following the injection the mouse licks the paw for about 10 minutes. This is phase 1 (acute) and is followed by a brief latent period where there is little behavioral activity. A more prolonged period of about 20 to 30 minutes of paw licking ensues which constitutes phase 2 (inflammatory).
Prior to the administration of the active peptide, drug or vehicle each mouse undergoes a 15-minute conditioning period in one of several 6″ tall plexiglass observation tubes (4″ diameter) that are placed in front of a mirror. […] One hour after treatment, formalin was injected sub-dermally (20 μl; 27 gauge needle) into the plantar surface of the right hind foot. The bevel of the needle is placed facing down toward the skin surface. Following the injection of the formalin each animal is observed for first 2 minutes of each 5 minute epoch for a total of 45 minutes. The cumulative length of licking for each 2 minute time period was measured. An animal receiving the requisite volume of vehicle was alternated with each mouse given GAL-BBB2, Gal 1-16, or gabapentin. Animals were euthanized following the conclusion of the experiment.
Area under the curve (AUC) determination was made using the GraphPad Prism Version 3.03. Total AUC is calculated for both the test and control groups for both the acute and inflammatory phases. The AUC for individual animals for each phase is also calculated and converted to percentage of total AUC of control. The average percentages and SEM for both the drug treated and control were calculated and tested for significant difference.

sound-induced seizures = assay: Frings audiogenic seizure-susceptible mouse model; type: in vivo
Experimental: The two modified galanin analogs (GAL-BBB1 and GAL-BBB2) were administered i.p. to a group of Frings audiogenic seizure susceptible mice in a dose of 4 mg/kg. At various times after administration (i.e., 15, 30, 60, 120, and 240 min) each mouse was placed into a cylindrical test chamber fitted with an audio transducer and challenged with a high-intensity sound stimulus (110 dB, 11 KHz for 20 sec). Animals not displaying tonic hind-limb extension were considered protected. […] In a subsequent study, anticonvulsant efficacy was quantitated at the time to peak effect (i.e., 1 h) in a dose-response study.
The ability of individual modified analogs to prevent seizures induced by sound in the AGS-susceptible Frings mouse model can be assessed at the time of peak effect (White et al., 1992). For this test, individual mice are placed into a plexiglass cylinder (diameter, 15 cm; height, 18 cm) fitted with an audio transducer (Model AS-ZC; FET Research and Development, Salt Lake City, Utah), and exposed to a sound stimulus of 110 decibels (11 KHz) delivered for 20 seconds. Sound-induced seizures are characterized by wild running followed by loss of righting reflex with forelimb and hindlimb tonic extension. Mice not displaying hindlimb tonic extension are considered protected.
At various times after administration (i.e., 15, 30, 60, 120, and 240 min) each mouse was placed into a cylindrical test chamber fitted with an audio transducer and challenged with a high-intensity sound stimulus (110 dB, 11 KHz for 20 sec).

hGalR3 = biological target: T2, hGalR3 (Homo sapiens, UniProt O60755); conditions: Table 18; compiled from literature; read-out: Affinity, KD hGalR3; cited from earlier work
T2 sequence (O60755 1-368): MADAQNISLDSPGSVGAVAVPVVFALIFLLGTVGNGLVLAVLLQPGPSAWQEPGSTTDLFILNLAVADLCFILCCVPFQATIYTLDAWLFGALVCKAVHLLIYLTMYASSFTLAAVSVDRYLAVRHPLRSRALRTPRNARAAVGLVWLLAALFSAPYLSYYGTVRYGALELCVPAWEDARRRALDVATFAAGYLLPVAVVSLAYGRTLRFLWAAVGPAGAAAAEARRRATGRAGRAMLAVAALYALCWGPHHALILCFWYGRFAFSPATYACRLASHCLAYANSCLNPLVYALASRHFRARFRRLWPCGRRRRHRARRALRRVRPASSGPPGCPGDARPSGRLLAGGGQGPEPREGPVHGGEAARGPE

[4] = Table 2, reference ligands, same values as Table 18, read-out: affinity toward galanin receptors, GalR2
[5] = Table 18, compiled from literature, read-out: Affinity, KD hGalR2

## CNCC(=O)N[C@@H](Cc1c[nH]c2ccccc12)C(=O)N[C@H](C(=O)N[C@@H](CC(C)C)C(=O)N[C@@H](CC(N)=O)C(=O)N[C@@H](CO)C(=O)N[C@@H](C)C(=O)NCC(=O)N[C@@H](Cc1ccc(O)cc1)C(=O)N[C@@H](CC(C)C)C(=O)N[C@@H](CC(C)C)C(=O)NCC(=O)N1CCC[C@H]1C(=O)N[C@@H](CCCCN)C(=O)N[C@@H](CCCCN)C(=O)N[C@@H](CCCCN)C(=O)N[C@@H](CCCCN)C(N)=O)[C@@H](C)O [NAX 1105-2]
[1]
  toxicity (motor impairment): toxicity (motor impairment); also recorded: toxic
6 Hz limbic seizures
  % Protection at 1 hour: 30%
  % Protection at 2 hours: 0%
  % Protection at 4 hours: 0%
  ED50 in the 6 Hz model: 3.8 mg/kg
  dose in parentheses in Table 14 (ED50): 3.7 mg/kg

## Lys-Lys-Lys(palm)-Lys-Ahx-DPhe-Cys-Phe-DTrp-Lys-Thr-Cys-Thr-NH2
[2]
  % Protection at 30 min: 100%

## GWTLNSAGYL [Fragment 1-10]
Galanin receptors
  Kd: 25 µM

## WAGGDFSGE [DSIP, reference compound]
6 Hz limbic seizures; administered directly into the ventricular space, 22 mA
  activity against 6 Hz (22 mA) limbic seizures: effective
[2]
  % Protection at 30 min: 0%

## [Ahx]GGWAGGDFSGE
[2]
  % Protection at 30 min: 50%
[2]; 2 hours
  % Protection after 2 hours: (100% after

## WTLNSAGYLLGPKK(Lys-P)K (not fully specified (C-terminus)) [NAX 1205-1]
6 Hz limbic seizures
  % Protection at 1 hour: 50%
  % Protection at 2 hours: 50%
  % Protection at 4 hours: 0%
  ED50 in the 6 Hz model: 5.7 mg/kg
  dose in parentheses in Table 14 (ED50): 5.7 mg/kg

## Cc1cc(=O)oc2cc(NC(=O)[C@H](CCCCN)NC(=O)[C@H](CC3CCCCC3)NC(=O)OCC3c4ccccc4-c4ccccc43)ccc12 [Galnon] (Fmoc-[Cha]-Lys-{AMC})
hGalR2; [4]
  Kd: 24 µM
hGalR2; [5]
  Kd: 24 µM

## DPhe-Cys-Phe-DTrp-Lys-Thr-Cys-Thr-NH2 [DPhe-Cys-Phe-DTrp-Lys-Thr-Cys-Thr-N2, reference compound]
[2]
  % Protection at 30 min: 50%

## (Sar)WTLNSAGYLLGPRR(Lys-P)R [NAX 1205-3]
6 Hz limbic seizures
  % Protection at 1 hour: 100%
  % Protection at 2 hours: 75%
  % Protection at 4 hours: 0%

## CC(C)C[C@H](NC(=O)[C@H](CC(C)C)NC(=O)[C@H](Cc1ccc(O)cc1)NC(=O)CNC(=O)[C@H](C)NC(=O)[C@H](CO)NC(=O)[C@H](CC(N)=O)NC(=O)[C@H](CC(C)C)NC(=O)[C@@H](NC(=O)[C@H](Cc1c[nH]c2ccccc12)NC(=O)CN)[C@@H](C)O)C(=O)NCC(=O)O [Fragment 1-12]
Galanin receptors
  Kd: 3 µM

## (Sar)WTLNSAGYLLGPHA(Lys-P) [306-5]
6 Hz limbic seizures
  % Protection at 1, 2 and 4 hours (result in words): Not active

## CCCCCCCCCCCCCCCC(=O)NCCCC[C@H](NC(=O)[C@H](CCCCN)NC(=O)[C@H](CCCCN)NC(=O)[C@H](CCCCN)NC(=O)[C@H](CCCCN)NC(=O)[C@H](CC(C)C)NC(=O)[C@H](CC(C)C)NC(=O)[C@H](Cc1ccc(O)cc1)NC(=O)CNC(=O)[C@H](C)NC(=O)[C@H](CO)NC(=O)[C@H](CC(N)=O)NC(=O)[C@H](CC(C)C)NC(=O)[C@@H](NC(=O)[C@H](Cc1c[nH]c2ccccc12)NC(=O)CNC)[C@@H](C)O)C(=O)N[C@@H](CCCCN)C(N)=O [NAX 1205-4] (H-[Sar]WTLNSAGYLLKKKKK(Palmitoyl)K-NH2)
[1]
  toxicity (motor impairment): toxic

## (Sar)WTLNSAGYLLGPDKDK(Lys-P)DK (XWTLNSAGYLLGPXXXX; N-terminal Sar; C-terminal (Lys-P)DK; MOD_RES 1 Xaa = MeGly; VARIANT 14, 15, 17 Xaa = D-Lys; MOD_RES 16 Xaa = Lys-palm) [NAX 1205-2]
6 Hz limbic seizures
  % Protection at 1 hour: 100%
  % Protection at 2 hours: 50%
  % Protection at 4 hours: 75%
  ED50 in the 6 Hz model: 1.2 mg/kg
  dose in parentheses in Table 14 (ED50): 1.2 mg/kg

## (Sar)WTLNSAGY(Ahx)KK(Lys-P)K [NAX 306-4]
[3]; 2.95 mg/kg
  activity in second response phase of inflammatory pain assay: very active
[3]
  Active at (flat phase II): 2.9 mg/kg (“flat phase II”)
6 Hz limbic seizures
  % Protection at 1 hour: 50%
  % Protection at 2 hours: 0%
  % Protection at 4 hours: 0%
  ED50 in the 6 Hz model: 2.95 mg/kg
  dose in parentheses in Table 14 (ED50): 2.95 mg/kg

## GWTLNSAGY [Fragment 1-9]
Galanin receptors
  Kd: 100 µM

## CC(C)C[C@H](NC(=O)[C@H](CC(C)C)NC(=O)[C@H](Cc1ccc(O)cc1)NC(=O)CNC(=O)[C@H](C)NC(=O)[C@H](CO)NC(=O)[C@H](CC(N)=O)NC(=O)[C@H](CC(C)C)NC(=O)[C@@H](NC(=O)[C@H](Cc1c[nH]c2ccccc12)NC(=O)CN)[C@@H](C)O)C(=O)NCC(=O)N1CCC[C@H]1C(=O)N[C@@H](Cc1c[nH]cn1)C(=O)O [Fragment 1-14]
Galanin receptors
  Kd: 0.15 µM

## Sar-Trp-Thr-Leu-Asn-Ser-Ala-Gly-Tyr-Leu-Leu-Gly-Pro-His-(Lys-palm)-Tle-NH2 [GAL-BBB1]
sound-induced seizures; 4 mg/kg i.p., 15-240 min, also higher dose of 12 mg/kg
  anticonvulsant activity: not active at any time point tested

## GWTLNSAGYLLGPHAV [Gal(1-16), reference compound]
hGalR3
  Kd: 0.0065 µM
hGalR2; [4]
  Kd: 0.0083 µM
hGalR2; [5]
  Kd: 0.0083 µM
sound-induced seizures; 20 mg/kg i.p.
  anticonvulsant activity: inactive
[3]; 20 mg/kg i.p.
  activity in formalin test: inactive
6 Hz limbic seizures
  % Protection at 1, 2 and 4 hours (result in words): Not active

## (Sar)WTLNSAGYKK(Lys-P)K [NAX 306-3]
[3]
  Active at (flat phase II): 2.7 mg/kg (“flat phase II”)

## CC[C@@H](C(N)=O)N1CCCC1=O [Levetiracetam, reference compound]
6 Hz limbic seizures; 6 Hz (44 mA), 1000 mg/kg, alone
  maximum protection against 6 Hz limbic seizures: ≤ 50%
